Assay [1] has as its system PC-3 [JPC-3]. Description: Lung cancer cell line viability screen. It is filed as cell-based. The following applies: NSCLC, EGFR 747-749 del, read-out: NGI-1 (IC50). On the procedure: (§1) NGI-1 activity was screened in 94 lung cancer cell lines at the Center for Molecular Therapeutics at the Massachusetts General Hospital Center for Cancer Research with previously described methods (Garnett et al., Nature, 483(7391):570-5 (2012)). Briefly, cells were treated in 384-well microplates using 9 serial NGI-1 dilutions, returned to an incubator for 96 hours, then stained with 55 μg/ml resazurin (Sigma) prepared in Glutathione-free media for 4 hours. Fluorescent signal intensity was quantified with a plate reader at excitation and emission wavelengths of 535/595 nm to determine viability. Viability ratio across the 9 doses were fitted to determine the half maximal inhibitory concentration (IC50).

The test system of assay [2] is NCI-H1838. Description: Lung cancer cell line viability screen. The settings on record: Homo sapiens; NCI-H1838, NSCLC, EGFR amplified; read-out: NGI-1 (IC50). It is filed as cell-based. On the procedure:
as §1

Assay [3] concerns SKMG3 cells. Description: Phospho-γH2AX foci formation after radiation. The settings on record: 2 hours after 4 Gy, 10 μM NGI-1. It is filed as cell-based, human. On the procedure: To determine histone H2AX phosphorylation (γH2AX), cells were cultured on glass cover slips and pre-treated with either vehicle or NGI-1 for 48 hours followed by radiation treatment. Samples were fixed with 4% neutral-buffered formaldehyde, washed (0.1% triton in PBS for 30 minutes) and incubated for 1 hour with protein-blocking solution (PBS containing 10% normal goat-horse serum; Sigma-Aldrich, Saint Louis, Mich., US). Next, the slides were incubated with primary anti-phospho-histone γH2AX S139 (1:500, Millipore-Upstate, Billerica, Mass., US) followed by incubation with secondary antibody Alexa Fluor 555-conjugated goat anti-mouse IgG (1:750, Molecular probes/Invitrogen, Carlsbad, Calif., US), for 1 hour at room temperature. Nuclei were stained using DAPI containing vectashield mounting solution (Vector Labs). Confocal cellular images were captured with an inverted Zeiss LSM 510 Pascal laser confocal microscope (C. Zeiss, Jenna, Germany), using a 63/1.4 plan-apochromat objective. Five randomly selected fields s per slide were analyzed. Cells were counted using the ImageJ program, public domain Java image processing software.

In assay [4] the test system is SKMG3 cells. Description: Radiation clonogenic survival assay. It is filed as cell-based, human. The protocol:
(§2) Radiation (XRT) doses of either 0, 2, 4, or 6 Gy were delivered with a Precision X-ray 320-kV orthovoltage unit at a dose rate of 2 Gy/45 seconds (PXI X-Ray Systems). Twenty-four hours following XRT cells were washed, trypsinized, and re-plated in triplicate wells to determine clonogenic survival. […] Growth rates were determined by CellTiter 96 Non-Radioactive Cell Proliferation Assay (Promega; Madison, Wis., USA) according to the manufacturer's directions. For each experiment one thousand cells were seeded in triplicate wells in 96-wells plates. The following day, cell cultures were treated with NGI-1 (1 μM), Temozolomide (TMZ, 10 μM), Etoposide (VP-16, 0.1 μM) or combinations for 5 days. Absorbance at 540 nm was measured using the spectrophotometric reading (BioTek Synergy 2; Winooski, Vt. USA).

Assay [5] relates to HCC827-GR cells. Description: Apoptosis by Annexin V flow cytometry. The assay is classed as cell-based. The following applies: NGI-1 treatment alone. On the procedure: First-line analysis was performed with Flow Jo software. Approximately 50,000 cells were analyzed per experiment, and the mean value was obtained from 3 independent assays.
Background: Flow cytometry measures light scatter and fluorescence of single cells or particles in a stream.

In assay [6] the test system is PC9-GR cells. Nature of the assay: Apoptosis by Annexin V flow cytometry. It is filed as cell-based. The following applies: NGI-1 treatment alone. On the procedure: (§3) Briefly, 1×10^6 cells/sample were collected, washed in PBS, pelleted, and resuspended in incubation buffer (10 mm HEPES/NaOH, pH 7.4, 140 mm NaCl, 2.5 mm CaCl2) containing 1% annexin V and 1% 7-Amino-actinomycin D or propidium iodide, to identify dead cells. […] First-line analysis was performed with Flow Jo software. Approximately 50,000 cells were analyzed per experiment, and the mean value was obtained from 3 independent assays.

The test system of assay [7] is parental PC9 cells. Description: Apoptosis by Annexin V flow cytometry. The following applies: NGI-1 10 μM, 48 h. The assay is classed as cell-based. The protocol: as §3
Assay [8] deals with SKMG3-CD8-EGFR cells. Nature of the assay: Radiation clonogenic survival assay. The assay is classed as cell-based, human. The following applies: 10 μM NGI-1. On the procedure: as §2
(§4) The CD8 cDNA was a gift from Paula Kavathas (Yale University). The CD8-EGFR was constructed according to a strategy that generated a constitutively active IGF-1R (24). The extracellular domain of CD8 was PCR amplified with a 5′ XbaI and 3′ SalI restriction site and cloned in-frame with the intracellular kinase domain of EGFR using the pDCB5-EGFR plasmid. SKMG3-CD8-EGFR cells were generated by Lipofectamine (Life Technologies) transfection of the plasmid followed by selection with 500 μg/ml G418. Expression of CD8-EGFR was validated by western blot analysis of the wild type and CD8-EGFR.

Assay [9] concerns SKMG3-CD8-EGFR cells. Description: Cell cycle distribution by flow cytometry. The following applies: 10 μM NGI-1, 4 Gy. The assay is classed as cell-based, human. The protocol:
Cell cycle distribution was determined following treatment with vehicle, radiation and/or 10 uM NGI-1. Cells were trypsinized and centrifuged, washed once with ice-cold PBS, fixed with ice-cold 70% ethanol and stored overnight at −20° C. After washing twice with PBS, they were incubated for 30 minutes at room temperature in 200 μL of Guava Cell Cycle Reagent (Guava Technologies). Cytofluorometric acquisitions were performed on a LSRII cytometer (BD Biosciences). First-line analysis was performed with FlowJo software, upon gating of the events characterized by normal forward and side scatter parameters and discrimination of doublets in a FSC-A vs. FSC-H bivariate plot. Approximately 50,000 cells were analyzed per experiment.
as §4

`Cc1cnc(NC(=O)c2cc(S(=O)(=O)N(C)C)ccc2N2CCCC2)s1` [NGI-1, 5-(dimethylsulfamoyl)-N-(5-methyl-1,3-thiazol-2-yl)-2-(pyrrolidin-1-yl)benzamide]: the IC50 (commonly the concentration needed to halve the response being measured) in [1] is 4.9 µM; in [2] it was 4.29 µM. In [3], the “increase of phospho-γH2AX foci formation compared to radiation alone (factor)” value was found to be 1.2. Besides, in assay [4] (10 μM NGI-1), the “dose enhancement factor (DEF) at a surviving fraction of 0.4” value stood at 1.2. Besides, the “survival fraction at 2 Gy (SF2Gy)” value in assay [4] (10 μM NGI-1 48 hours before radiation, 87% without NGI-1) came to 77%. In addition, the induction of apoptosis result was “not sufficient to induce apoptosis” in [5], “no pro-apoptotic effect” in assay [6] and “does not induce apoptosis” in assay [7]. In [8], the “radiosensitization by NGI-1 (radiation clonogenic survival)” value is listed as “prevented radiosensitization”. The “G1 cell cycle arrest caused by NGI-1, alone and after exposure to radiation” value in assay [9] is recorded as “eliminated the G1 cell cycle arrest”.

(Values after patent US10765638B2, “Particle formulation with polycation complex” (Yale University, priority 2017, dated 2020).)
